From patent US20250255866A1, “USES OF FATTY ACID AMIDE HYDROLASE INHIBITORS IN TREATMENT OF TRAUMA RELATED PSYCHIATRIC DISORDERS” (Neuritek Therapeutics Ltd., priority 2020, published 2025)

Assays:
adults with PTSD = assay: Exploratory behavioral analyses 1: effect relative to placebo on PTSD symptoms; format: in vivo, human
Experimental: (a). To evaluate the effect of daily 450 mg of 3-{[5-(2-Fluorophenyl)pyridin-2-yl]oxy}-N-(pyridazin-3-yl)azetidine-1-carboxamide relative to placebo in mitigating PTSD symptoms in adults with PTSD. Patient will be receiving a 450 mg dose of the study agent.
(b). To evaluate the effect of 450 mg of the study drug relative to placebo in mitigating PTSD symptoms that comprise a contemporary, five-factor phenotypic model of this disorder, as well as secondary “intermediate phenotype” measures of anxiety sensitivity and somatic anxiety.

FAAH = assay: Changes in plasma fatty acid amide (FAA) levels in response to the FAAH inhibitor; format: in vivo, human; conditions: 450 mg/day, plasma drug level 200 nm/ml to about 600 ng/ml, predicted maximal change
Experimental: In other embodiments, upon achieving trough steady state plasma, plasma FAA levels will be minimal. Conversely, at the 450 mg/day dose, changes in plasma FAA levels in response to 3-{[5-(2-Fluorophenyl)pyridin-2-yl]oxy}-N-(pyridazin-3-yl)azetidine-1-carboxamide ranging from 200 nm/ml to about 600 ng/ml are predicted to be maximal; in the order of 3, 4, 8 and 5 ng/mL for AEA, LEA, OEA and PEA, respectively.

## O=C(Nc1cccnn1)N1CC(Oc2ccc(-c3ccccc3F)cn2)C1 [3-{[5-(2-Fluorophenyl)pyridin-2-yl]oxy}-N-(pyridazin-3-yl)azetidine-1-carboxamide]
Adults with PTSD; 450 mg daily dose
  PTSD symptoms of the five-factor phenotypic model, anxiety sensitivity and somatic anxiety, relative to placebo: most pronounced effect on reducing anxious arousal
Adults with PTSD; daily 450 mg
  overall severity of PTSD symptoms relative to placebo: reduction in overall severity of PTSD symptoms
FAAH
  change in plasma FAA level: AEA: ~3 ng/mL
  change in plasma FAA level: LEA: ~4 ng/mL
  change in plasma FAA level: OEA: ~8 ng/mL
  change in plasma FAA level: PEA: ~5 ng/mL
